This note sets out measurements from patent US5543415A, “Antidepressants” (Kyowa Hakko Kogyo Co., Ltd., priority 1992, dated 1996).

Each structure is given as a SMILES string. A value given as a limit tells only on which side of the number the result lay.

The data set deals with ddY-strain male mice. As to the kind of experiment: Acute Toxicity Test (minimum lethal dose, oral). The class given is in vivo. Particulars: seven days after administration. As to the method:
Test compounds were orally administered to groups of ddY-strain male mice weighing 20±1 g, each group consisting of three mice. Seven days after the administration, minimum lethal dose (MLD) of each compound was determined by observing the mortality.
Regarding `CCn1c(=O)c2[nH]c(/C=C/c3ccc(O)cc3)nc2n(CC)c1=O` [Compound 193, (E)-1,3-Diethyl-8-(4-hydroxystyryl)xanthine], the “MLD (minimum lethal dose)” value was more than 100 mg/kg.
`CCn1c(=O)c2c(nc(/C=C/c3cc(OC)c(OC)cc3[N+](=O)[O-])n2C)n(CC)c1=O` [Compound 120, (E)-8-(4,5-Dimethoxy-2-nitrostyryl)-1,3-diethyl-7-methylxanthine]: the “MLD (minimum lethal dose)” value is more than 300 mg/kg.
The result for `CCn1c(=O)c2c(nc(/C=C/c3ccc(OCC(=O)O)cc3)n2C)n(CC)c1=O` [Compound 190, (E)-8-(4-Carboxymethoxystyryl)-1,3-diethyl-7-methylxanthine] reads more than 100 mg/kg; that for `CCn1c(=O)c2[nH]c(/C=C/c3ccc(OC)c(OC)c3Cl)nc2n(CC)c1=O` [Compound 105, (E)-8-(2-Chloro-3,4-dimethoxystyryl)-1,3-diethylxanthine], more than 100 mg/kg; that for `CCn1c(=O)c2c(nc(/C=C/c3ccc(OC)c(C)c3OC)n2C)n(CC)c1=O` [Compound 86, (E)-8-(2,4-Dimethoxy-3-methylstyryl)-1,3-diethyl-7-methylxanthine], more than 300 mg/kg.
The result for `CCCn1c(=O)c2[nH]c(/C=C/c3ccc(OC)c(C)c3C)nc2n(CCC)c1=O` [Compound 13, (E)-8-(4-Methoxy-2,3-dimethylstyryl)-1,3-dipropylxanthine] reads more than 300 mg/kg; that for `COc1ccc(/C=C/c2nc3c(c(=O)n(C)c(=O)n3C)n2C)c(C)c1C` [Compound 94, (E)-8-(4-Methoxy-2,3-dimethylstyryl)caffeine], more than 100 mg/kg.
On to `CCCOc1ccc(/C=C/c2nc3c([nH]2)c(=O)n(CCC)c(=O)n3CCC)cc1` [Compound 50, (E)-8-(4-Propoxystyryl)-1,3-dipropylxanthine], for which the “MLD (minimum lethal dose)” value is more than 100 mg/kg.
The result for `CCOc1ccc(/C=C/c2nc3c([nH]2)c(=O)n(CC)c(=O)n3CC)cc1` [Compound 123, (E)-8-(4-Ethoxystyryl)-1,3-diethylxanthine] reads more than 100 mg/kg.
Take `CCn1c(=O)c2c(nc(/C=C/c3cccc(OC)c3)n2C)n(CC)c1=O` [Compound 140, (E)-1,3-Diethyl-8-(3-methoxystyryl)-7-methylxanthine]: the “MLD (minimum lethal dose)” value is reported as more than 300 mg/kg.
The result for `CCCn1c(=O)c2[nH]c(/C=C/c3ccc(OC)c4ccccc34)nc2n(CCC)c1=O` [Compound 62, (E)-8-[2-(4-Methoxynaphthyl)vinyl]-1,3-dipropylxanthine] reads more than 100 mg/kg; that for `CCn1c(=O)c2[nH]c(/C=C/c3ccc(OC)cc3OC)nc2n(CC)c1=O` [Compound 77, (E)-8-(2,4-Dimethoxystyryl)-1,3-diethylxanthine], more than 100 mg/kg.
As for `COc1cc(/C=C/c2nc3c(=O)n(C)c(=O)n(C)c3[nH]2)cc(OC)c1OC` [Compound 11, (E)-8-(3,4,5-trimethoxystyryl)theophylline], the figure is more than 300 mg/kg; as for `CCCn1c(=O)c2nc(/C=C/c3ccc(OC)c(OC)c3OC)[nH]c2n(CCC)c1=O` [Compound 21, (E)-1,3-Dipropyl-8-(2,3,4-trimethoxystyryl)xanthine], more than 300 mg/kg; as for `CCCn1c(=O)c2[nH]c(/C=C/c3ccc(OC)c(OC)c3)nc2n(CCC)c1=S` [Compound 71, (E)-8-(3,4-Dimethoxystyryl)-1,3-dipropyl-2-thioxanthine], more than 100 mg/kg.
As for `COc1ccc(/C=C/c2nc3c([nH]2)c(=O)n(C)c(=O)n3C)cc1Br` [Compound 115, (E)-8-(3-Bromo-4-methoxystyryl)theophylline], the figure is more than 100 mg/kg; as for `COc1ccc(/C=C/c2nc3c(c(=O)n(C)c(=O)n3C)n2C)c(Cl)c1OC` [Compound 108, (E)-8-(2-Chloro-3,4-dimethoxystyryl)caffeine], more than 300 mg/kg; as for `CCCn1c(=O)c2c(nc(/C=C/c3ccc(OC)c(C)c3OC)n2C)n(CCC)c1=O` [Compound 16, (E)-8-(2,4-Dimethoxy-3-methylstyryl)-7-methyl-1,3-dipropylxanthine], more than 300 mg/kg.
Consider `CCCn1c(=O)c2c(nc(/C=C/c3cccc(OC)c3OC)n2C)n(CCC)c1=O` [Compound 30, (E)-8-(2,3-Dimethoxystyryl)-7-methyl-1,3-dipropylxanthine], for which the “MLD (minimum lethal dose)” value is reported as more than 300 mg/kg.
As to `C#CCn1c(/C=C/c2ccc(OC)c(OC)c2)nc2c1c(=O)n(CCC)c(=O)n2CCC` [Compound 67, (E)-8-(3,4-Dimethoxystyryl)-7-propargyl-1,3-dipropylxanthine], the “MLD (minimum lethal dose)” value is listed as more than 300 mg/kg.
On to `CCn1c(=O)c2c(nc(/C=C/c3cc4c(cc3Br)OCO4)n2C)n(CC)c1=O` [Compound 166, (E)-8-(2-Bromo-4,5-methylenedioxystyryl)-1,3-diethyl-7-methylxanthine], for which the “MLD (minimum lethal dose)” value is on record as more than 100 mg/kg.
For the compound `CCn1c(=O)c2c(nc(/C=C/c3ccc(OC)c(OC)c3Cl)n2C)n(CC)c1=O` [Compound 106, (E)-8-(2-Chloro-3,4-dimethoxystyryl)-1,3-diethyl-7-methylxanthine], the “MLD (minimum lethal dose)” value was more than 300 mg/kg.
As for `COc1ccc(/C=C/c2nc3c([nH]2)c(=O)n(C)c(=O)n3C)c(C)c1C` [Compound 93, (E)-8-(4-Methoxy-2,3-dimethylstyryl)theophylline], the figure is more than 100 mg/kg; as for `COc1cc(C)c(/C=C/c2nc3c(c(=O)n(C)c(=O)n3C)n2C)cc1C` [Compound 102, (E)-8-(4-Methoxy-2,5-dimethylstyryl)caffeine], more than 100 mg/kg; as for `CCn1c(=O)c2[nH]c(/C=C/c3cccc(OC(F)(F)F)c3)nc2n(CC)c1=O` [Compound 143, (E)-1,3-Diethyl-8-(3-trifluoromethoxystyryl)xanthine], more than 100 mg/kg.
The result for `CCCn1c(=O)c2c(nc(/C=C/c3ccc(OC)c(O)c3)n2C)n(CCC)c1=O` [Compound 64, (E)-8-(3-Hydroxy-4-methoxystyryl)-7-methyl-1,3-dipropylxanthine] reads more than 100 mg/kg; that for `CCn1c(=O)c2[nH]c(/C=C/c3ccccc3OC)nc2n(CC)c1=O` [Compound 157, (E)-1,3-Diethyl-8-(2-methoxystyryl)xanthine], more than 100 mg/kg; that for `CCCn1c(=O)c2c(nc(/C=C/c3ccccc3F)n2C)n(CCC)c1=O` [Compound 44, (E)-8-(2-Fluorostyryl)-7-methyl-1,3-dipropylxanthine], more than 100 mg/kg.
The result for `CCn1c(=O)c2c(nc(/C=C/c3ccc(F)c(Cl)c3)n2C)n(CC)c1=O` [Compound 177, (E)-8-(3-Chloro-4-fluorostyryl)-1,3-diethyl-7-methylxanthine] reads more than 100 mg/kg; that for `CCCn1c(=O)c2c(nc(/C=C/c3ccc(OCOC)c(OCOC)c3)n2C)n(CCC)c1=O` [Compound 68, (E)-8-[3,4-Bis(methoxymethoxy)styryl]-7-methyl-1,3-dipropylxanthine], more than 100 mg/kg.
With `CCn1c(=O)c2c(nc(/C=C/c3ccc(OCCCCN=[N+]=[N-])cc3)n2C)n(CC)c1=O` [Compound 187, (E)-8-[4-(4-Azidobutoxy)styryl]-1,3-diethyl-7-methylxanthine], the “MLD (minimum lethal dose)” value is reported as more than 100 mg/kg.
For `CCn1c(=O)c2c(nc(/C=C/c3ccc(OCOC)cc3)n2C)n(CC)c1=O` [Compound 146, (E)-1,3-Diethyl-8-(4-methoxymethoxystyryl)-7-methylxanthine], the “MLD (minimum lethal dose)” value was more than 100 mg/kg.
As to `COc1cccc(/C=C/c2nc3c(=O)n(C)c(=O)n(C)c3[nH]2)c1OC` [Compound 97, (E)-8-(2,3-Dimethoxystyryl)theophylline], the “MLD (minimum lethal dose)” value is listed as more than 100 mg/kg.
The result for `COc1cc(C)c(/C=C/c2nc3c([nH]2)c(=O)n(C)c(=O)n3C)cc1C` [Compound 101, (E)-8-(4-Methoxy-2,5-dimethylstyryl)theophylline] reads more than 100 mg/kg; that for `CCn1c(=O)c2[nH]c(/C=C/c3ccc(OC)c(OC)c3OC)nc2n(CC)c1=O` [Compound 79, (E)-1,3-Diethyl-8-(2,3,4-trimethoxystyryl)xanthine], more than 300 mg/kg.
For the compound `CCn1c(=O)c2[nH]c(/C=C/c3ccc(F)cc3)nc2n(CC)c1=O` [Compound 149, (E)-1,3-Diethyl-8-(4-fluorostyryl)xanthine], the “MLD (minimum lethal dose)” value was more than 100 mg/kg.
For the compound `CCn1c(=O)c2[nH]c(/C=C/c3ccc(F)c(F)c3)nc2n(CC)c1=O` [Compound 111, (E)-8-(3,4-Difluorostyryl)-1,3-diethylxanthine], the “MLD (minimum lethal dose)” value is more than 300 mg/kg.
The result for `CCCn1c(=O)c2[nH]c(/C=C/c3ccc(OC)c(Br)c3)nc2n(CCC)c1=O` [Compound 56, (E)-8-(3-Bromo-4-methoxystyryl)-1,3-dipropylxanthine] reads more than 100 mg/kg.
As to `CCn1c(=O)c2[nH]c(C(F)=Cc3ccccc3)nc2n(CC)c1=O` (stereo in doubt) [Compound 137, (E)-1,3-Diethyl-8-(α-fluorostyryl)xanthine], the “MLD (minimum lethal dose)” value was more than 100 mg/kg.
The result for `CCCn1c(=O)c2[nH]c(/C=C/c3cccc(OC)c3OC)nc2n(CCC)c1=O` [Compound 29, (E)-8-(2,3-Dimethoxystyryl)-1,3-dipropylxanthine] reads more than 100 mg/kg; that for `CCCn1c(=O)c2c(nc(/C=C/c3cc(OC)c(OCc4ccccc4)c(OC)c3)n2C)n(CCC)c1=O` [Compound 28, (E)-8-(4-Benzyloxy-3,5-dimethoxystyryl)-7-methyl-1,3-dipropylxanthine], more than 100 mg/kg.
Take `COc1ccc(/C=C/c2nc3c(c(=O)n(C)c(=O)n3C)n2C)cc1Br` [Compound 116, (E)-8-(3-Bromo-4-methoxystyryl)caffeine]: the “MLD (minimum lethal dose)” value is reported as more than 300 mg/kg.
